# Results from US10709710B2, “Composition comprising uric acid for the treatment treated with mechanical thrombectomy” (Hospital Clinic de Barcelona, priority 2017, dated 2020).
# Columns and labels:
# [1] = test system: ischemic brain stroke patients treated with mechanical thrombectomy; assay: Treatment with uric acid of ischemic brain stroke patients treated with intravenous thrombolysis and mechanical thrombectomy; type: in vivo, humans
# Description: Example 1. Treatment with uric acid of ischemic brain stroke patients treated with intravenous thrombolysis and mechanical thrombectomy.
# In total, 45 ischemic brain stroke patients were enrolled in this study and received the combination of thrombolytic treatment (using rt-PA) and mechanical thrombectomy. […] The patients of this study were recruited at eight centres and, in all the cases, the corresponding informed consent was obtained from the patient or its legal representative.
# (§1) All patients that were selected for the study received one standard dose ([…]) of rtPA (in the present case, intravenous alteplase) within the 4.5 hours following the brain stroke. During infusion of intravenous alteplase, patients were assigned randomly in a 1:1 proportion to the uric acid group or to the placebo group, so that they received 500 ml of intravenous solution of 1000 mg of uric acid or placebo (physiologic serum comprising 0.1% […] and 5% mannitol), respectively, both contained in glass bottles covered with opaque yellow bags tag in identical manner. Said treatment with uric acid or placebo was applied during 90 minutes.
# The mechanical thrombectomy procedure was carried in accordance to the procedure pointed out in the REVASCAT assay (Jovin T G, Chamorro A, Cobo E, de Miguel M A, Molina C A, Rovira A, San Román L, Serena J, Abilleira S, Ribó M, Millán M, Urra X, Cardona P, López-Cancio E, Tomasello A, Castaño C, Blasco J, Aja L, Dorado L, Quesada H, Rubiera M, Hernandez-Pérez M, Goyal M, Demchuk A M, von Kummer R, Gallofré M, Dávalos A; REVASCAT Trial Investigators.. Thrombectomy within 8 hours after symptom onset in ischemic stroke. N Engl J Med. 2015; 372:2296-306) and it was started before the 90 minutes of the infusion of the composition with uric acid or placebo had elapsed.
# To determine if the revascularization was successful the conventional technique of digital angiography by subtraction was used. Successful vessel revascularization was considered that with grade 2b (indicating reperfusion of from 50% to 90% of the damaged zone), or grade 3 (complete reperfusion of the damaged zone) in accordance with the modified Thrombolysis in Cerebral Infarction (hereinafter, mTICI) scale of 0 to 3.
# In addition, certain parameters (death, incidence of intracranial hemorrhages and incidence of gout attacks) were measured in order to determine the safety of the new treatment (treatment of the present invention).
# [2] = test system: patients with ischemic brain stroke not treated with mechanical thrombectomy; assay: Same type of study in ischemic brain stroke patients not treated with mechanical thrombectomy; type: in vivo, humans
# Method: as §1
# The same type of study was carried out with other subpopulations with ischemic brain stroke (not treated with mechanical thrombectomy, but the rest of the treatment and the procedure was the same).
# [3] = test system: occlusion of the middle cerebral artery; details: adult rat; uric acid 24 hours before the occlusion or 1 hour after the reperfusion; cited from earlier work
# [4] = test system: thromboembolism model of focal cerebral ischemia; details: rat thromboembolism model; synergic with rtPA; cited from earlier work
# [5] = test system: patients with acute stroke; details: URICO-ICTUS phase 2b/3, cited from earlier work
# [6] = test system: hippocampus cells; details: culture of hippocampus cells; cited from earlier work
# [7] = in words, with mechanical thrombectomy
# [8] = with mechanical thrombectomy, uric acid group n = 24
# [9] = Patients which consume alcohol, uric acid n = 10
# [10] = Patients which have suffered previous brain stroke, uric acid n = 30
# [11] = Patients with atrial fibrillation, uric acid n = 35
# [12] = Patients with cardioembolism, uric acid n = 86
# [13] = Patients with coronary disease, uric acid n = 31
# [14] = Patients with diabetes, uric acid n = 55
# [15] = Patients with dyslipidaemia, uric acid n = 81
# [16] = Smoking patients, uric acid n = 35
# [17] = Women patients, uric acid n = 100
# [18] = general population not treated with mechanical thrombectomy, uric acid n = 187
# [19] = in words, general population without mechanical thrombectomy
structure (smiles),measurement,setting,value
"O=c1[nH]c(=O)c2[nH]c(=O)[nH]c2[nH]1 [Uric acid, uric acid]","successfulness in the revascularization, uric acid vs placebo","[1]; in words, mTICI grade 2b or 3",no significant differences
same,"complete independence of the patients at 90 days (Barthel index score of 95-100), uric acid vs placebo",[1]; [7],statistically significant and surprising improvement
same,"good results at 90 days (mRS score of between 0-2), uric acid vs placebo",[1]; [7],statistically significant and surprising improvement
same,"growth of the infarcted zone at 72 hours from the treatment, uric acid vs placebo",[1]; [7],statistically significant and surprising improvement
same,"rest of measured parameters, uric acid vs placebo",[1]; [7],positive and improvement tendency
same,"safety: death, incidence of intracranial hemorrhages and incidence of gout attacks, uric acid vs placebo",[1]; [7],no differences were observed
same,"mTICI Score 0, number of patients","[1]; revascularization by digital subtraction angiography, uric acid 1000 mg i.v. + rtPA + mechanical thrombectomy, n = 24",3
same,"mTICI Score 0, share of group (in parentheses)","[1]; revascularization by digital subtraction angiography, uric acid group n = 24",(13)
same,"mTICI Score 1, number of patients",[1]; uric acid group n = 24,0
same,"mTICI Score 2a, number of patients",[1]; uric acid group n = 24,1
same,"mTICI Score 2a, share of group (in parentheses)",[1]; uric acid group n = 24,(4)
same,"mTICI Score 2b, number of patients",[1]; uric acid group n = 24,7
same,"mTICI Score 2b, share of group (in parentheses)",[1]; uric acid group n = 24,(29)
same,"mTICI Score 2b/3 (successful revascularization), number of patients",[1]; uric acid group n = 24,20
same,"mTICI Score 2b/3 (successful revascularization), share of group (in parentheses)",[1]; uric acid group n = 24,(83)
same,"mTICI Score 3, number of patients",[1]; uric acid group n = 24,13
same,"mTICI Score 3, share of group (in parentheses)",[1]; uric acid group n = 24,(54)
same,"mRS score of between 0-2 at 90 días, %","[1]; with mechanical thrombectomy, uric acid 1000 mg i.v. + rtPA, n = 24",(66.6) %
same,"Barthel index score of 95-100 at 90 days, %",[1]; [8],(66.6) %
same,"Growth of the infarcted zone at 72 hours of the treatment, mean",[1]; [8],-33.2 mL
same,"NIHSS score 0 at 90 days, %",[1]; [8],(37.5) %
same,"Volume of the infarcted zone at 72 hours of the treatment measured by means of magnetic resonance image of the brain, mean",[1]; [8],17.2
same,"Barthel index score of 95-100 at 90 days, %","[2]; Men patients, uric acid n = 87",(50.6) %
same,"mRS score of between 0-2 at 90 dies, %","[2]; Men patients, uric acid n = 87",(51.7) %
same,"Barthel index score of 95-100 at 90 days, %",[2]; [9],(20) %
same,"mRS score of between 0-2 at 90 dies, %",[2]; [9],(40) %
same,"Barthel index score of 95-100 at 90 days, %",[2]; [10],(40) %
same,"mRS score of between 0-2 at 90 dies, %",[2]; [10],(43.3) %
same,"Barthel index score of 95-100 at 90 days, %",[2]; [11],(31.4) %
same,"mRS score of between 0-2 at 90 dies, %",[2]; [11],(42.9) %
same,"Barthel index score of 95-100 at 90 days, %",[2]; [12],(45.3) %
same,"mRS score of between 0-2 at 90 dies, %",[2]; [12],(48.8) %
same,"Barthel index score of 95-100 at 90 days, %",[2]; [13],(51.6) %
same,"mRS score of between 0-2 at 90 dies, %",[2]; [13],(45.2) %
same,"Barthel index score of 95-100 at 90 days, %",[2]; [14],(45.8) %
same,"mRS score of between 0-2 at 90 dies, %",[2]; [14],(45.5) %
same,"Barthel index score of 95-100 at 90 days, %",[2]; [15],(50.6) %
same,"mRS score of between 0-2 at 90 dies, %",[2]; [15],(49.4) %
same,"mRS score of between 0-2 at 90 dies, %","[2]; Patients with hypertension (arterial pressure over 160 mmHg), uric acid n = 131",(48.9) %
same,"Barthel index score of 95-100 at 90 days, %","[2]; Patients with hypertension, uric acid n = 131",(45.8) %
same,"mRS score of between 0-2 at 90 dies, %","[2]; Patients with large vessel arteriosclerosis (arterial stenosis +2250%), uric acid n = 19",(31.6) %
same,"Barthel index score of 95-100 at 90 days, %","[2]; Patients with large vessel arteriosclerosis, uric acid n = 19",(21.1) %
same,"Barthel index score of 95-100 at 90 days, %",[2]; [16],(42.9) %
same,"mRS score of between 0-2 at 90 dies, %",[2]; [16],(50) %
same,"Barthel index score of 95-100 at 90 days, %",[2]; [17],(42) %
same,"mRS score of between 0-2 at 90 dies, %",[2]; [17],(50) %
same,"Barthel index score of 95-100 at 90 days, %",[2]; [18],45.6%
same,"mRS score of between 0-2 at 90 dies, %",[2]; [18],44.7%
same,effect in the percentage of patients with Barthel index score 95-100,[2]; [19],only a minimal effect
same,effect in the percentage of patients with an mRS score of between 0 and 2 at 90 days,[2]; [19],did not show a detectable effect
same,lipid peroxidation,[3],reduces
same,reactive oxygen species accumulation,[3],suppresses
same,resulting cerebral infarction,[3],significantly reduces
same,neuroprotective effect,[4],neuroprotective
same,safety of uric acid in combination with the standard thrombolytic treatment (alteplase),[5],safe
same,proportion of patients with excellent results at 90 days,[5]; combined with alteplase,no change was seen
same,protection against excitotoxic damage by glutamate,[6],protects against excitotoxic damage by glutamate
